Target: T1, 1-deoxy-D-xylulose 5-phosphate reductoisomerase (Escherichia coli K-12, UniProt P45568)
T1 sequence (P45568 whole entry): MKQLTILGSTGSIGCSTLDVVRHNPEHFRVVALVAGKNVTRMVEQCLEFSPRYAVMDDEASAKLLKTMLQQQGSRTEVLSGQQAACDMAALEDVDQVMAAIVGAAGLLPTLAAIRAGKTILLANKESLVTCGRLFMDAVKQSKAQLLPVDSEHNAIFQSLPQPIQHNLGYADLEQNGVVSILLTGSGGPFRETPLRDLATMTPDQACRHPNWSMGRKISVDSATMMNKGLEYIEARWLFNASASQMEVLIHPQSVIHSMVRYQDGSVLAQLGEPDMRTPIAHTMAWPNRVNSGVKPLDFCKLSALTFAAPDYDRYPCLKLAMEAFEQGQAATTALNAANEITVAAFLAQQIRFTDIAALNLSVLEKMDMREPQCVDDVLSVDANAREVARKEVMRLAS
Assay: Inhibitory concentration against DOXP reductoisomerase

| Structure (SMILES) | IC50 |
| --- | --- |
| O=C(CN(Cc1ccccc1)CP(=O)(O)O)NO | 1.82 µM |
| O=C(CCCP(=O)(O)O)NO | 0.257 µM |
| O=C(CNCP(=O)(O)O)NO | 16.2 µM |
| CN(CC(=O)NO)CP(=O)(O)O | 31.6 µM |
| CS(=O)(=O)N(O)CCCP(=O)(O)O | 38 µM |
| NC(CCP(=O)(O)O)C(=O)NO (stereo unspecified) | 9.77 µM |
| CCCCCCCC(=O)N(O)CCCP(=O)(O)O | 1.7 µM |
| CC(C)(C)C(=O)N(O)CCCP(=O)(O)O | 11 µM |
| NCCCCCC(=O)N(O)CCCP(=O)(O)O | 40.7 µM |
| CC(=O)N(O)C1CCC(P(=O)(O)O)C1 (stereo unspecified) | 2.34 µM |
| CC(O)CC(=O)N(O)CCCP(=O)(O)O (stereo unspecified) | 50.1 µM |
| CC(=O)N(O)C/C=C/P(=O)(O)O | 0.0646 µM |
| O=C(c1ccc(-c2ccccc2)cc1)N(O)CCCP(=O)(O)O | 2.4 µM |
| COc1ccc(CC(=O)NCC(=O)N(O)CCCP(=O)(O)O)cc1OC | 14.1 µM |
| O=C(NCC(=O)N(O)CCCP(=O)(O)O)c1ccc(OC(F)(F)F)cc1 | 5.13 µM |
| CC(=O)N(O)CC(C)CP(=O)(O)O (stereo unspecified) | 0.646 µM |
| CCCC(CCN(O)C=O)P(=O)(O)O (stereo unspecified) | 8.13 µM |
| CC(C)C(CCN(O)C=O)P(=O)(O)O (stereo unspecified) | 6.61 µM |
| NCCCC(=O)N(O)CCCP(=O)(O)O | 25.7 µM |
| O=C(CCCOc1ccccc1)NCC(=O)N(O)CCCP(=O)(O)O | 1 µM |
| CCC(CCN(O)C=O)P(=O)(O)O (stereo unspecified) | 1.78 µM |

| Structure (SMILES) | IC50 |
| --- | --- |
| O=C(NCC(=O)N(O)CCCP(=O)(O)O)C1CC1 | 7.08 µM |
| O=C(N(O)CCCP(=O)(O)O)C(F)(F)F | 14.1 µM |
| O=C(C1CC1)N(O)CCCP(=O)(O)O | 36.3 µM |
| COC(=O)c1ccccc1C(=O)N(O)CCCP(=O)(O)O | 100 µM |
| CC(=O)N(O)CCC(C)P(=O)(O)O (stereo unspecified) | 0.0537 µM |
| NCCC(=O)N(O)CCCP(=O)(O)O | 15.8 µM |
| CCOC(=O)C(=O)N(O)C1CCC(P(=O)(O)O)C1 (stereo unspecified) | 15.8 µM |
| CCC(C(=O)NCC(=O)N(O)CCCP(=O)(O)O)c1ccccc1 (stereo unspecified) | 20 µM |
| O=C(CCCc1c[nH]c2ccccc12)NCC(=O)N(O)CCCP(=O)(O)O | 17 µM |
| O=C(c1cccc2ccccc12)N(O)CCCP(=O)(O)O | 0.229 µM |
| CCC(CCN(O)C(C)=O)P(=O)(O)O (stereo unspecified) | 0.708 µM |
| CCCC(CCN(O)C(C)=O)P(=O)(O)O (stereo unspecified) | 6.61 µM |
| O=C(c1ccccc1O)N(O)C1CCC(P(=O)(O)O)C1 (stereo unspecified) | 50.1 µM |
| CC(C)CC(=O)N(O)CCCP(=O)(O)O | 24 µM |
| O=C(C(Cl)Cl)N(O)CCCP(=O)(O)O | 0.178 µM |
| O=C(c1ccccc1O)N(O)CCCP(=O)(O)O | 1.82 µM |
| O=C(CCc1ccccc1)N(O)CCCP(=O)(O)O | 50.1 µM |
| O=CN(O)CC(Cc1ccccc1)CP(=O)(O)O (stereo unspecified) | 6.46 µM |
| O=C(c1ccccc1)N(O)CCCP(=O)(O)O | 0.1 µM |
| CC(=O)N(O)CCCP(=O)(O)O [FR-900098] | 0.0282 µM |

Source: ChEMBL document CHEMBL1139511, “AFMoC enhances predictivity of 3D QSAR: a case study with DOXP-reductoisomerase” (J Med Chem, 2005)
